Like-named read-outs stand apart in the source and are kept apart here.
Legend:
[1] = system: acyl ghrelin secretion from INS-1 cells (INS/GOAT/GHRL cell line); assay: INS-1 cellular assay: secreted acyl-ghrelin from INS/GOAT/GHRL cell line measured with ELISA; type: cell-based, mouse; conditions: for IC50: INS1, acyl-ghrelin secretion, read-out: in-house INS-1 IC50; for activity in cell culture (in words): acyl ghrelin secretion
From the text: Generation of Recombinant Retrovirus for mGOAT Expression. The mouse GOAT cDNA with C-terminal HA tag was amplified from pcDNA3.1-mouseGOAT-HA vector (gift from Brown and Goldstein lab) using the following primers: mGOAT_attb1 (forward primer) 5′-[…]—3′(attb1 recombination site is in italics, 5′ of mGOAT coding sequence is in bold, and Kozak coding sequence is underlined) and mGOAT_attb2 (reverse primer) 5′-[…] -3′ (attb2 recombination site is in italics, 3′ of mGAOT-HA coding sequence is in bold, and stop codon is underlined). The PCR product was cloned into donor vector pDONR221 (ThermoFisher) with BP clonase according to manufacturer’s instructions. Positive clones were verified by DNA sequencing with M13F and M13R primers. The resulting entry plasmid pDONR221-mGOAT-HA was used to transfer mGOAT-HA cDNA to destination vector pBabe-puro (Addgene cat# 51070 [35]) using LR clonase according to manufacturer’s instructions. Positive clones were verified by DNA sequencing with pBABE-5 and pBABE-3 primers. The resulting plasmid, pBabe-puro-mGOAT-HA, was used to generate retrovirus. The retrovirus was packed in 293T PhoE (Phoenix-ECO AT0CC® CRL-3214™) cells and used to infect INS-1 cells. The stable INS/GOAT cells were selecting on 1 μg/mL puromycin and GOAT expression was confirmed with immunoblot of membrane fraction isolated from antibiotic resistant culture using anti-HA antibody.
Generation of Lentivirus for Expression of Ghrelin. The cDNA for mouse preproghrelin was subcloned from pcDNA3.1-preproghrelin (gift from Brown and Goldstein lab) into pULTRA vector (Addgene cat# 24129 [36]) with XbaI and BamHI restriction enzymes. Using of these restriction sites for cloning will result in the creation of bi-cistronic expression of ghrelin along with EGFP to facilitate identification of positive cells by fluorescence. The above restriction sites were engineered via PCR reaction using the following primers: ghrl_pultra_forw 5′-[…]-3′ (5′ of preproghrelin coding sequence is in bold; XbaI site is in italics) and ghrl_pultra_rev 5′-[…] -3′ (3′ of preproghrelin coding sequence is in bold, stop codon is underlined, and BamHI site is italics). The recombinant lentivirus encoding preproghrelin cDNA was packed in Lenti-X 293T cells (Takara cat# 632180) by co-transfection of pUltra-EGFP-mouse-preproghrelin, with packaging encoding plasmid pCMV ΔR8.2 (Addgene cat# 12263) and envelope encoding plasmid pCMV-VSV g (Addgene cat# 8454). The INS/GOAT cells were infected with recombinant lentivirus to generate INS/GOAT/GHRL cell line. After few passages, the population of cells with puromycin resistance and ~90% fluorescence was saved for cell-based assay.
Cellular assay. INS/GOAT/GHRL cell line was routinely cultured in RPMI medium supplemented with 10% FBS, 1% Pen/Strep, 10 mM HEPES pH 7.2 and 50 μM 2-mercaptoethanol. Day 0: One 10 cm dish at full confluency was used to seed one 96-well plate. Day 1: Growth media was removed and cells were washed with PBS prior to adding fresh growth media as above but without 2-mercaptoethanol. The serial dilutions of tested compound at 50× concentration were prepared in vehicle containing growth media without 2-mercaptoethnol supplemented with 6% DMSO and were added to cells in duplicates. Day 2: 10 μL of growth media were removed from each well and amount of secreted acyl-ghrelin was measured with ELISA (Cayman cat# 10006307).

GOAT = conditions: read-out: lit. IC50, cited from earlier work
ghrelin production = system: ghrelin production; parameters: method as in earlier work; conditions: cited from earlier work

SMILES	IC50 [1]	IC50 (GOAT; Eli Lilly compound)	adverse side effects (ghrelin production; at doses that inhibited ghrelin production)	ghrelin production in vivo (ghrelin production)	oral bioavailability (ghrelin production)	IC50 (GOAT; Boehringer Ingelheim compound)	activity in cell culture (in words) [1]	potency of blocking ghrelin secretion from INS-1 cells relative to 5 [1]
Cc1nc(Cl)nc(N)c1CCC1CCN(C(=O)[C@H](C)NC(=O)c2ccnn2C)CC1 [compound 5]	670 nM	57 nM	did not cause observable adverse side effects	inhibited ghrelin production in vivo	orally bioavailable	–	–	–
CNC(=O)c1cccc(Cc2c(C)nc3nonc3c2N)n1 [compound 6, reference compound]	540 nM	–	–	–	–	0.24 nM	–	–
CCCCOCC(=O)N1CCC(CCc2c(C)nc3nonc3c2N)CC1 [compound 10, 1-(4-(2-(7-amino-5-methyl-[1,2,5]oxadiazolo[3,4-b]pyridin-6-yl)ethyl)piperidin-1-yl)-2-butoxyethan-1-one]	> 6600 nM	–	–	–	–	–	much less active in cells	–
Cc1nc2nonc2c(N)c1CCC1CCN(C(=O)[C@H](C)NC(=O)c2ccnn2C)CC1 [compound 11, (S)-N-(1-(4-(2-(7-amino-5-methyl-[1,2,5]oxadiazolo[3,4-b]pyridin-6-yl)ethyl)pip-eridin-1-yl)-1-oxopropan-2-yl)-1-methyl-1H-pyrazole-5-carboxamide]	160 nM	–	–	–	–	–	most potent compound we have tested in our cellular assay	4 fold

— PMC8709388, “In Search of Small Molecules That Selectively Inhibit MBOAT4” (Molecules, 2021)
